PMC4669708 (Cell Death & Disease, 2015)

Columns and labels:
Assay in all cases: c-ponatinib pulldown LC-MS/MS
Format in all cases: binding
[1] = molecular target: T1, CCT4 (Homo sapiens, UniProt P50991)
T1 sequence (P50991 1-539): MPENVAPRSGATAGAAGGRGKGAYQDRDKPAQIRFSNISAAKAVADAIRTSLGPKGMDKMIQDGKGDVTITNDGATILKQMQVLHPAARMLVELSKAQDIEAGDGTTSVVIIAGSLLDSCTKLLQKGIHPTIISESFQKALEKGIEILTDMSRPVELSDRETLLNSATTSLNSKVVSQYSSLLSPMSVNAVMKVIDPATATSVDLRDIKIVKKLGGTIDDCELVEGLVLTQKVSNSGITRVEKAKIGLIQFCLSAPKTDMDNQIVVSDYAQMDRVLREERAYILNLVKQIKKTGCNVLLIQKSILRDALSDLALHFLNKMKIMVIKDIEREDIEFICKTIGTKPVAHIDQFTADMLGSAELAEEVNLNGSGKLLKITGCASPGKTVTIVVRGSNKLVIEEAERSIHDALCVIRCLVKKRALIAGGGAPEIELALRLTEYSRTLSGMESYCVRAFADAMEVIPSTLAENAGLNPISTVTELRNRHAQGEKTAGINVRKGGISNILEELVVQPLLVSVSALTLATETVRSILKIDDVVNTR
How it was run: (§1)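 Read-out: interaction P-value combining Mascot scores, Phenyx scores and spectral counts (Fisher's method), plus fold reduction of median spectral counts on free-compound competition. Proteins were enriched from 10 mg cell lysate on c-ponatinib beads, then trypsin-digested for LC-MS/MS.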

[2] = molecular target: CDK5 (Homo sapiens, UniProt Q00535)
CDK5, sequence (Q00535 whole entry): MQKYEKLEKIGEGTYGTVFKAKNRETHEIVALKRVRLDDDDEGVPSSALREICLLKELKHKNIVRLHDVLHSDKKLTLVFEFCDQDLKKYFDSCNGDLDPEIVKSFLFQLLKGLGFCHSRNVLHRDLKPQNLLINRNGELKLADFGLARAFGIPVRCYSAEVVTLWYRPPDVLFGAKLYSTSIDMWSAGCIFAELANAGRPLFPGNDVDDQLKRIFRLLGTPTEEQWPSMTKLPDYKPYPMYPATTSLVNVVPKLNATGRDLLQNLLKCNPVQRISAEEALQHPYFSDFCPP
How it was run: as §1

[3] = molecular target: UNC119B (Homo sapiens, UniProt A6NIH7)
UNC119B, sequence (A6NIH7 whole entry): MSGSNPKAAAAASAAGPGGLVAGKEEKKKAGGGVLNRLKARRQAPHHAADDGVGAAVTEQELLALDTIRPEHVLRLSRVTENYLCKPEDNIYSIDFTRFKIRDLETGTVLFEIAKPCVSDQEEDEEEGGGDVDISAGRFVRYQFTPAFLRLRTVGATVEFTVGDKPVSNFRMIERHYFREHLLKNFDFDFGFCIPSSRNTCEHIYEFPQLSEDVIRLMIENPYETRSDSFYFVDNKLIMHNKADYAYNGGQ
How it was run: as §1

Av. SC comp. ([1]; + free ponatinib): 0 | Total SC comp. ([1]; + free ponatinib): 0 | Av. SC ([1]; no competitor): 3.5 | Total SC ([1]; no competitor): 14 | Av. SC comp. ([2]; + free ponatinib): 2.75 | Total SC comp. ([2]; + free ponatinib): 11 | Av. SC ([2]; no competitor): 7.25 | Total SC ([2]; no competitor): 29 | Av. SC comp. ([3]; + free ponatinib): 0 | Total SC comp. ([3]; + free ponatinib): 0 | Av. SC ([3]; no competitor): 6 | Total SC ([3]; no competitor): 24
SMILES: Cc1ccc(C(=O)Nc2ccc(CN3CCN(CCCN)CC3)c(C(F)(F)F)c2)cc1C#Cc1cnc2cccnn12 [c-ponatinib]
